Results published in patent US5430033A, “Piperazine derivatives” (John Wyeth & Brother Ltd., priority 1993, dated 1995).

Legend:
5-HT1A receptor [1] = target: T1, 5-HT1A receptor (Rattus norvegicus, UniProt P19327); assay: 5-HT1A receptor binding activity in rat hippocampal membrane homogenate; details: method of Alexander and Wood
T1 construct: rat hippocampal membrane homogenate; from tissue; host or cells: rat hippocampus, membrane homogenate
T1 sequence (P19327 1-422): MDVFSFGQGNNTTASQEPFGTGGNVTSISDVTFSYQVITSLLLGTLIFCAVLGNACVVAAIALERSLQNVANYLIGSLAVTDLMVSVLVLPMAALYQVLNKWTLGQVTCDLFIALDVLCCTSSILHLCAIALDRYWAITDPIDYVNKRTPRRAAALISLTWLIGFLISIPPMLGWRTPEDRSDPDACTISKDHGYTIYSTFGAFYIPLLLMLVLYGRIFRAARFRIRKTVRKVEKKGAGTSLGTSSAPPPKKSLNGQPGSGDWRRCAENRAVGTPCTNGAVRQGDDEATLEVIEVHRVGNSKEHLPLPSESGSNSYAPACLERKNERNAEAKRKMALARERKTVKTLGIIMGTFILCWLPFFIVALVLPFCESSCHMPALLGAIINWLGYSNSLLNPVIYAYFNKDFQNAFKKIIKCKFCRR
Procedure: The compounds of the invention are tested for 5-HT1A receptor binding activity in rat hippocampal membrane homogenate by the method of B S Alexander and M D Wood, J Pharm Pharmacol, 1988, 40, 888-891.

5-HT1A receptor [2] = target: T2, 5-HT1A receptor (Cavia porcellus, UniProt A0A286Y074); assay: 5-HT1A receptor antagonism: antagonism of 5-carboxamidotryptamine in the guinea-pig ileum in vitro; assay type: cell-based
T2 construct: guinea-pig ileum in vitro; from tissue; host or cells: guinea-pig ileum
T2 sequence (A0A286Y074 1-421): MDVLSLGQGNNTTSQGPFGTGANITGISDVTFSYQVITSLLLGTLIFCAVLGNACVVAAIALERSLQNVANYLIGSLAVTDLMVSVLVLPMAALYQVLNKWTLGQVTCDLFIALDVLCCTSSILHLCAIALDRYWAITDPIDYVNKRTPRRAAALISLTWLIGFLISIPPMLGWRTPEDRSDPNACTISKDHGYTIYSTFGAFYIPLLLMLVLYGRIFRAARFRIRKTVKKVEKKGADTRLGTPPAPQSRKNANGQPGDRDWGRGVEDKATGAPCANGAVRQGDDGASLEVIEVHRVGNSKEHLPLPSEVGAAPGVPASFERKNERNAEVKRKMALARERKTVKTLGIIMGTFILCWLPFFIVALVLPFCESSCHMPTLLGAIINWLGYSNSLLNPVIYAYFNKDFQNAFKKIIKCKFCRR
Procedure: The compounds are tested for 5-HT1A receptor antagonism activity in a test involving the antagonism of 5-carboxamidotryptamine in the guinea-pig ileum in vitro (based upon the procedure of Fozard et al, Br J Pharmac, 1985, 86, 601P).

Structure (SMILES): COc1ccccc1N1CCN(CCc2ccccc2-c2ccccc2)CC1 [Example 3, 1-(2-(2-biphenyl)ethyl)-4-(2-methoxyphenyl)piperazine]
- IC50 (5-HT1A receptor [1]): 2 nM
- pA2, 5-HT1A receptor antagonism (5-HT1A receptor [2]): 8.1
